The source of these data is ChEMBL document CHEMBL4017490, “Design, Synthesis, and Pharmacological Evaluation of Novel Multisubstituted Pyridin-3-amine Derivatives as Multitargeted Protein Kinase Inhibitors for the Treatment of Non-Small Cell Lung Cancer” (J Med Chem, 2017).

Experiment [1] concerns the target Fibroblast growth factor receptor 1 (Homo sapiens, UniProt P11362). Nature of the experiment: Inhibition of recombinant human FGFR1 using poly (Glu,Tyr) 4:1 as substrate after 60 mins by ELISA. A general note: ELISA stands for enzyme-linked immunosorbent assay.
The target in experiment [2] is Fibroblast growth factor receptor 2 (Homo sapiens, UniProt P21802).
Description: Inhibition of recombinant human FGFR2 using poly (Glu,Tyr) 4:1 as substrate after 60 mins by ELISA
In experiment [3] the target is Fibroblast growth factor receptor 3 (Homo sapiens, UniProt P22607). The experiment can be described thus: Inhibition of recombinant human FGFR3 using poly (Glu,Tyr) 4:1 as substrate after 60 mins by ELISA.
Experiment [4] in a line: Inhibition of FGFR3 mutant in human UM-UC-14 cells assessed as inhibition of cell proliferation after 72 hrs by cell counting kit-8 assay. Type of experiment: cell-based. The settings on record: UMUC14, 72 h. On the technique in general: Tetrazolium assays rely on reduction of a dye to a coloured formazan, in cell work by metabolically active cells.

Sequence of Fibroblast growth factor receptor 2 (P21802 whole entry): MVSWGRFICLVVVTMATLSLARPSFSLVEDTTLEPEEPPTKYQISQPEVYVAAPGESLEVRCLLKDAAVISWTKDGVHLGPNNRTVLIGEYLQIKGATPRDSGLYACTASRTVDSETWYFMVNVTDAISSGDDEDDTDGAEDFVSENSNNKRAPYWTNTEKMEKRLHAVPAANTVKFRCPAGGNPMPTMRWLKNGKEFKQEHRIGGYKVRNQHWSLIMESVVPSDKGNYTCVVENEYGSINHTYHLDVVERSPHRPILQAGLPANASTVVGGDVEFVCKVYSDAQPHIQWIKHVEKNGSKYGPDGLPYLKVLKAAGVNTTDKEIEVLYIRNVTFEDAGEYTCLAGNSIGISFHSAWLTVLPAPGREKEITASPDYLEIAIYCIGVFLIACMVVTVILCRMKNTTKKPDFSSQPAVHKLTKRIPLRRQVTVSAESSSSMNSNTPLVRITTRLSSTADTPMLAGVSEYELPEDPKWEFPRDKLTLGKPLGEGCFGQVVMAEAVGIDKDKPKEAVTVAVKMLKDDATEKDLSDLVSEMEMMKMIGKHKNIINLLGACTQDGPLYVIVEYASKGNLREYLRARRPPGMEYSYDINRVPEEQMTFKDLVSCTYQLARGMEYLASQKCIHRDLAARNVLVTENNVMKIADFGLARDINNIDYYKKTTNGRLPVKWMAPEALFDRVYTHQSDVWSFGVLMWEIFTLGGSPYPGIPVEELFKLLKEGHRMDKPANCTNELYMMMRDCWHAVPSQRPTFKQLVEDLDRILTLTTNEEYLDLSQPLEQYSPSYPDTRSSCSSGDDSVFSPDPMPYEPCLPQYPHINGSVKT
Sequence of Fibroblast growth factor receptor 1 (P11362 whole entry): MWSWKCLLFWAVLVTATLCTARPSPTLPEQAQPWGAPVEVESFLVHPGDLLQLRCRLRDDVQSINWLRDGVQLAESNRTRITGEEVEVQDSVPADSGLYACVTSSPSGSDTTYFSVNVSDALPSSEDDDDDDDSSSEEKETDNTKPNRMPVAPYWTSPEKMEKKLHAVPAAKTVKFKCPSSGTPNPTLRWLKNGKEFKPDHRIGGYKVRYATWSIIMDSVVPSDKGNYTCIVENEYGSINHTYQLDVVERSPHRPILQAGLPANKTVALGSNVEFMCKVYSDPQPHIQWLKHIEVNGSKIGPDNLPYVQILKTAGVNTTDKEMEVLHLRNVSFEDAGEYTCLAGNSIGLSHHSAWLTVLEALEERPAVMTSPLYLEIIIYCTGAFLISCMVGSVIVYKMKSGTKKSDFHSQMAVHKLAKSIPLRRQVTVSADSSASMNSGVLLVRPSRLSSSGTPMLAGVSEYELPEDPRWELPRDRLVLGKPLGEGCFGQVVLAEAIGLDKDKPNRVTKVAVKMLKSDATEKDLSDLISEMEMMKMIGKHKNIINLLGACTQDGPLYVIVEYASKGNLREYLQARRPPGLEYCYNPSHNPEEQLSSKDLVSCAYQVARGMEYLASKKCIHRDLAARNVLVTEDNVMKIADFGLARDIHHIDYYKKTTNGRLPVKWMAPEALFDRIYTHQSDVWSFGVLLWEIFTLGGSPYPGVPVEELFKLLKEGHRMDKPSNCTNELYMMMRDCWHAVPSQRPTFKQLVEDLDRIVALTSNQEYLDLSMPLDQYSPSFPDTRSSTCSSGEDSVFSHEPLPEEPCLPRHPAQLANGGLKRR
Sequence of Fibroblast growth factor receptor 3 (P22607 whole entry): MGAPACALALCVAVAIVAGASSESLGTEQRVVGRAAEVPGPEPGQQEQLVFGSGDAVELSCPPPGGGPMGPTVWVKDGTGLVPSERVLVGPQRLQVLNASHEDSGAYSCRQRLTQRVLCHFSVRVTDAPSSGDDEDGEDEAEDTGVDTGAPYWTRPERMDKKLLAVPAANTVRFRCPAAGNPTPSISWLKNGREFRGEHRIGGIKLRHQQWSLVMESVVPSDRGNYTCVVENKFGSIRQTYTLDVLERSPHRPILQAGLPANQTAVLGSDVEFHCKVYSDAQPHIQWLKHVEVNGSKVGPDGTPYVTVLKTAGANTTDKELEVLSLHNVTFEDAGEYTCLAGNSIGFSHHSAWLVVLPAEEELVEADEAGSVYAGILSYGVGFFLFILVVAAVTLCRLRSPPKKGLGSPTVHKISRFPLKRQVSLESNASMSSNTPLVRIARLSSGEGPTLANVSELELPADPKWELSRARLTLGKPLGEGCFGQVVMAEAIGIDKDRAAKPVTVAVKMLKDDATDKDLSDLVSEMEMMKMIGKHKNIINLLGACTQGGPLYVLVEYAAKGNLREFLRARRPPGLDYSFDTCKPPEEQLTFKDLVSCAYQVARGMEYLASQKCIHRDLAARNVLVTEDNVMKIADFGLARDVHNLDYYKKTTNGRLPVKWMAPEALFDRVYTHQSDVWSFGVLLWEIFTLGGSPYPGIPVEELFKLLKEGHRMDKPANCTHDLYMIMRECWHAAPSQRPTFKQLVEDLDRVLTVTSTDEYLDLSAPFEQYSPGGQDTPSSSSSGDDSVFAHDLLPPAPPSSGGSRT

Consider `Cc1n[nH]c2ccc(-c3cc(N[C@@H](CO)c4ccccc4)cnc3-c3cc(C(C)C)ccc3O)cc12`, for which the IC50 in experiment [1], in experiment [2] and in experiment [3] was over 1000 nM in each case.
In the case of `Cc1n[nH]c2ccc(-c3cc(NCCCO)cnc3-c3cc(F)ccc3O)cc12`, the IC50 in experiment [1], in experiment [2] and in experiment [3] was over 1000 nM in each case.
`Cc1n[nH]c2ccc(-c3cc(N[C@@H](CO)c4ccccc4)cnc3-c3ccccc3CO)cc12`: the half-inhibitory concentration (IC50) in experiment [1] worked out at 167 nM; in experiment [2] it was 50.5 nM; in experiment [3], 251 nM.
On to `Cc1n[nH]c2ccc(-c3cc(N[C@@H](CO)c4ccccc4)cnc3-c3cccs3)cc12`, for which the results for the half-maximal inhibitory concentration (IC50) in experiment [1], in experiment [2] and in experiment [3] were over 1000 nM, 100 to 1000 nM and over 1000 nM, respectively.
As for `CC(=O)Nc1ccccc1-c1ncc(N[C@@H](CO)c2ccccc2)cc1-c1ccc2[nH]nc(C)c2c1`, the half-maximal inhibitory concentration (IC50) amounted to 418 nM in experiment [1], 250 nM in experiment [2] and 3650 nM in experiment [3].
As for `Cc1n[nH]c2ncc(-c3cc(N[C@@H](CO)c4ccccc4)cnc3-c3cc(Cl)ccc3O)cc12`, the IC50 amounted to 24.9 nM in experiment [1], 6.6 nM in experiment [2] and 93.9 nM in experiment [3].
For the compound `Cc1n[nH]c2ccc(-c3cc(N[C@@H](CO)c4ccccc4)cnc3-c3cccc(F)c3O)cc12`, the IC50 was determined as 27.9 nM in experiment [1], 2.5 nM in experiment [2] and 35.3 nM in experiment [3].
On to `Cc1n[nH]c2ccc(-c3cc(N[C@@H](CO)c4ccccc4)cnc3-c3ccccc3F)cc12`, for which the IC50 in experiment [1] worked out at 437 nM; in experiment [2] it was 44.6 nM; in experiment [3] it was 431 nM.
For `Cc1n[nH]c2ccc(-c3cc(N[C@@H](CO)c4ccccc4)cnc3-c3ccccc3C(N)=O)cc12`, the results for the IC50 in experiment [1], in experiment [2] and in experiment [3] were 48.8 nM, 72.9 nM and 388 nM, respectively.
In the case of `Cc1n[nH]c2ccc(-c3cc(N[C@@H](CO)c4ccccc4)cnc3-c3cccc(O)c3)cc12`, the IC50 in experiment [1] worked out at 66.5 nM; in experiment [2] it was 21.4 nM; in experiment [3], 434 nM.
For the compound `Cc1n[nH]c2ccc(-c3cc(NCCO)cnc3-c3cc(F)ccc3O)cc12`, the IC50 in experiment [1], in experiment [2] and in experiment [3] was over 1000 nM throughout.
As for `OC[C@H](Nc1cnc(-c2cc(Cl)ccc2O)c(-c2ccc3[nH]ccc3c2)c1)c1ccccc1`, the IC50 in experiment [1], in experiment [2] and in experiment [3] was over 1000 nM throughout.
In the case of `COc1cc(CCc2cc(NC(=O)c3ccc(N4C[C@@H](C)N[C@@H](C)C4)cc3)n[nH]2)cc(OC)c1` [FEXAGRATINIB], the IC50 in experiment [4] was determined as 27.1 nM.
As to `Cc1n[nH]c2ccc(-c3cc(N[C@H](CO)c4ccccc4)cnc3-c3cc(Cl)ccc3O)cc12`, the IC50 in experiment [1], in experiment [2] and in experiment [3] was over 1000 nM each time.
As for `Cc1ccc(O)c(-c2ncc(N[C@@H](CO)c3ccccc3)cc2-c2ccc3[nH]nc(C)c3c2)c1`, the IC50 in experiment [1] came to 32.3 nM; in experiment [2] it was 16.1 nM; in experiment [3], 22.8 nM.
On to `Cc1n[nH]c2ccc(-c3cc(N[C@@H](CO)c4ccccc4)cnc3-c3cccc4cc[nH]c34)cc12`, for which the IC50 in experiment [1] amounted to 456 nM; in experiment [2] it was 56.4 nM; in experiment [3], 561 nM.
For `Cc1n[nH]c2ccc(-c3cc(N[C@@H](CO)c4ccccc4)cnc3-c3ccccc3O)cc12`, in that order: 14.9 nM, 3 nM and 8 nM.
For `O=C1Cc2cc(-c3cc(N[C@@H](CO)c4ccccc4)cnc3-c3cc(Cl)ccc3O)ccc2N1`, the IC50 in experiment [1] amounted to 91.5 nM; in experiment [2] it was 154 nM; in experiment [3], 591 nM.
For the compound `Cc1n[nH]c2ccc(-c3cc(N[C@@H](CO)c4ccccc4)cnc3-c3ccccc3)cc12`, the IC50 in experiment [1] was determined as 128 nM; in experiment [2], 26.3 nM; in experiment [3], 280 nM.
In the case of `Cc1n[nH]c2ccc(-c3cc(N[C@@H](CO)c4ccccc4)cnc3-c3ccccc3C(F)(F)F)cc12`, the IC50 in experiment [1], in experiment [2] and in experiment [3] was over 1000 nM throughout.
With `CC(=O)Nc1ccc(-c2cc(N[C@@H](CO)c3ccccc3)cnc2-c2cc(Cl)ccc2O)cc1`, the IC50 in experiment [1], in experiment [2] and in experiment [3] was over 1000 nM in each case.
Regarding `COc1ccccc1-c1ncc(N[C@@H](CO)c2ccccc2)cc1-c1ccc2[nH]nc(C)c2c1`, the IC50 in experiment [1] was over 1000 nM; in experiment [2], 100 to 1000 nM; in experiment [3], over 1000 nM.
As to `Cc1n[nH]c2ccc(-c3cc(N[C@@H](CO)c4ccccc4)cnc3-c3cccnc3)cc12`, the IC50 in experiment [1], in experiment [2] and in experiment [3] was over 1000 nM each time.
`Cc1n[nH]c2ccc(-c3cc(N[C@@H](C)c4ccccc4)cnc3-c3cc(Cl)ccc3O)cc12`: the IC50 in experiment [1], in experiment [2] and in experiment [3] was over 1000 nM in each case.
As to `Cc1n[nH]c2ccc(-c3cc(N[C@@H](CO)c4ccccc4)cnc3-c3cccc4cccnc34)cc12`, the half-inhibitory concentration (IC50) in experiment [1], in experiment [2] and in experiment [3] was over 1000 nM in each case.
Turning to `Cc1n[nH]c2ccc(-c3cc(N[C@@H](CO)c4ccccc4)cnc3-c3cc(F)c(F)cc3O)cc12`, the IC50 in experiment [1] is 10.6 nM; in experiment [2], 2.8 nM; in experiment [3] it was 27.6 nM.
Consider `Cc1n[nH]c2ccc(-c3cc(N[C@@H](CO)c4ccccc4)cnc3-c3ccco3)cc12`, for which the IC50 was over 1000 nM in experiment [1], 100 to 1000 nM in experiment [2] and over 1000 nM in experiment [3].
As to `Cc1n[nH]c2ccc(-c3cc(N[C@@H](CO)c4ccccc4)cnc3-c3ccsc3)cc12`, the 50% inhibitory concentration (IC50) in experiment [1] is 327 nM; in experiment [2], 56.9 nM; in experiment [3] it was 970 nM.
Turning to `Cc1n[nH]c2ccc(-c3cc(N[C@@H](CO)c4ccccc4)cnc3-c3ccoc3)cc12`, the figures for the IC50 in experiment [1], in experiment [2] and in experiment [3] were 3800 nM, over 1000 nM and over 1000 nM, respectively.
In the case of `Cc1n[nH]c2ccc(-c3cc(N[C@@H](CO)c4ccccc4)cnc3-c3cc(F)cc(F)c3O)cc12`, the IC50 came out at 63.5 nM in experiment [1], 3.4 nM in experiment [2] and 58.4 nM in experiment [3].
For `Cc1n[nH]c2ccc(-c3cc(NC[C@H](O)c4ccccc4)cnc3-c3cc(Cl)ccc3O)cc12`, in that order: 168 nM, 71.9 nM and 401 nM.

One may read the IC50 as the concentration that inhibits the measured activity by half.
